Results on two molecules are retold here after patent US20250101046A1 (TAE Life Sciences LLC, priority 2023, published 2025).

Data set [1] deals with intracranial tumor. As to conditions: BNCT, beam directed to surgically exposed intracranial tumor; cited from earlier work.
Data set [2] is described as follows: Solubility in water / need of fructose to aid solubility. It is filed as physicochemical.

Consider “undecahydro-closo-dodecaboratethiol [BSH]”, for which, in data set [1], the 5-year survival rate is recorded as 58%.
Take `COc1ccc(C[C@H](N)C(=O)O)cc1[10B](O)O` [TC221, (S)-2-(amino)-3-(4-methoxy-3-boronic acid)propionic acid]: the “requirement of fructose to aid solubility” value in data set [2] was “does require fructose”. Further, in data set [2] (water), the solubility in water result is “very soluble”. For the same molecule, the “threshold of solubility compared to BPA” value in data set [2] (with fructose, versus BPA) is recorded as “much higher compared to BPA”.
